Assay results taken from ChEMBL document CHEMBL1141885, “N1-arylsulfonyl-3-(1,2,3,6-tetrahydropyridin-4-yl)-1H-indole derivatives are potent and selective 5-HT6 receptor antagonists” (Bioorg Med Chem Lett, 2005).
pIC50, pKi: −log10 of the molar value.

Legend:
[1] = target: T1, 5-hydroxytryptamine receptor 6 (Homo sapiens, UniProt P50406); test: Inhibition of [3H]LSD binding to cloned human 5-hydroxytryptamine 6 receptor expressed in HeLa cells at 1 uM; type: cell-based
[2] = target: T1, 5-hydroxytryptamine receptor 6; test: Binding affinity against cloned human 5-hydroxytryptamine 6 receptor expressed in HeLa cells using [3H]LSD; type: cell-based
[3] = target: T1, 5-hydroxytryptamine receptor 6; test: Inhibitory concentration against 5-HT stimulated cAMP production in HeLa cells stably transfected with human 5-HT6 receptor; type: functional, cell-based
D(3) dopamine receptor [4] = target: T2, D(3) dopamine receptor (Homo sapiens, UniProt P35462); test: Binding affinity against human cloned Dopamine receptor D3 stably expressed in CHO-K1 cells using [3H]spiperone; type: cell-based
D(4) dopamine receptor = target: T3, D(4) dopamine receptor (Homo sapiens, UniProt P21917); test: Binding affinity against human cloned Dopamine receptor D4 stably expressed in CHO-K1 cells using [3H]spiperone; type: cell-based
T3 sequence (P21917 whole entry): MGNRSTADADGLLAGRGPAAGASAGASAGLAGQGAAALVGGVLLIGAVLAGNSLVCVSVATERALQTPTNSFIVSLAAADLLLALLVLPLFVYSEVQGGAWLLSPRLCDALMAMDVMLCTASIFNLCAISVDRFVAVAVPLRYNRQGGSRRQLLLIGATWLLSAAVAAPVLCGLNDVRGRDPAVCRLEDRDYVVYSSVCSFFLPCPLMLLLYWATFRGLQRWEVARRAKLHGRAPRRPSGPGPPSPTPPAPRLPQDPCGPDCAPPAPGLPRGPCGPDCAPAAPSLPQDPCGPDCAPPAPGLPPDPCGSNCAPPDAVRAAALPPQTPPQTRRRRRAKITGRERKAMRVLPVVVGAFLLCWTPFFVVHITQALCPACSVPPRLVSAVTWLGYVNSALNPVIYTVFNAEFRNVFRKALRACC

[5] = target: 5-hydroxytryptamine receptor 1B (Homo sapiens) (UniProt P28222); test: Inhibition of [3H]-5-HT binding to human cloned 5-hydroxytryptamine 1B receptor stably expressed in CHO cells at 1 uM; type: cell-based
[6] = target: 5-hydroxytryptamine receptor 1D (Homo sapiens) (UniProt P28221); test: Inhibition of [3H]5-HT binding to human cloned 5-hydroxytryptamine 1D receptor stably expressed in CHO cells at 1 uM; type: cell-based
[7] = target: T4, 5-hydroxytryptamine receptor 1F (Homo sapiens) (UniProt P30939); test: Inhibition of [3H]-5-HT binding to human cloned 5-hydroxytryptamine 1F receptor stably expressed in CHO cells at 1 uM; type: cell-based
T4 sequence (whole entry): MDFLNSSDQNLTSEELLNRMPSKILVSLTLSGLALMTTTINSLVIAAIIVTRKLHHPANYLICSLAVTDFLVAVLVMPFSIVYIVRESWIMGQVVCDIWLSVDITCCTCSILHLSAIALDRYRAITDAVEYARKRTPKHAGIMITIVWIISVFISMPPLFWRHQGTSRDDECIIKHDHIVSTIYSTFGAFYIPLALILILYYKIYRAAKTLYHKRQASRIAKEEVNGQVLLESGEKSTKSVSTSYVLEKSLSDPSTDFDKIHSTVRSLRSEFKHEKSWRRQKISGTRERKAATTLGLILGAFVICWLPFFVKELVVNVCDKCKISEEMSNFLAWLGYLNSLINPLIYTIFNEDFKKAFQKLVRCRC

[8] = target: T5, 5-hydroxytryptamine receptor 2A (Homo sapiens, UniProt P28223); test: Binding affinity against human cloned 5-hydroxytryptamine 2A receptor stably expressed in CHO cells using [125I]DOI; type: cell-based
[9] = target: T6, 5-hydroxytryptamine receptor 2C (Homo sapiens, UniProt P28335); test: Binding affinity against human cloned 5-hydroxytryptamine 2C receptor stably expressed in CHO cells using [3H]-5-HT; type: cell-based
T6 sequence (P28335 whole entry): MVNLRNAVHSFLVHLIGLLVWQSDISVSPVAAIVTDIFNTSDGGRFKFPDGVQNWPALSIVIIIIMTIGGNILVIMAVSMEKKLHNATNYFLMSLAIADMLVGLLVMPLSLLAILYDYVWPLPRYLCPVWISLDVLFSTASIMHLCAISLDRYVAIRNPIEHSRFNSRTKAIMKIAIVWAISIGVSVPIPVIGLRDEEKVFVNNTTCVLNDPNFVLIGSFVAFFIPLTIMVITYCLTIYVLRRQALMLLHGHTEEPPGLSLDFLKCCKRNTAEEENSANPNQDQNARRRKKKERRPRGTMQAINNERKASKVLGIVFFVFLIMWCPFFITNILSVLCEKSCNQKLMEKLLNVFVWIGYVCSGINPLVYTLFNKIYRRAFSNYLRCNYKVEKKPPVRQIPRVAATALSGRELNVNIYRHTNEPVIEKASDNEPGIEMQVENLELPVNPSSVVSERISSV

D(2) dopamine receptor [10] = target: T7, D(2) dopamine receptor (Homo sapiens, UniProt P14416); test: Binding affinity against human cloned Dopamine receptor D2 stably expressed in CHO-K1 cells using [3H]spiperone; type: cell-based
[11] = target: T8, 5-hydroxytryptamine receptor 1A (Homo sapiens, UniProt P08908); test: Binding affinity against human cloned 5-hydroxytryptamine 1A receptor stably expressed in CHO cells using DPAT
T8 sequence (P08908 whole entry): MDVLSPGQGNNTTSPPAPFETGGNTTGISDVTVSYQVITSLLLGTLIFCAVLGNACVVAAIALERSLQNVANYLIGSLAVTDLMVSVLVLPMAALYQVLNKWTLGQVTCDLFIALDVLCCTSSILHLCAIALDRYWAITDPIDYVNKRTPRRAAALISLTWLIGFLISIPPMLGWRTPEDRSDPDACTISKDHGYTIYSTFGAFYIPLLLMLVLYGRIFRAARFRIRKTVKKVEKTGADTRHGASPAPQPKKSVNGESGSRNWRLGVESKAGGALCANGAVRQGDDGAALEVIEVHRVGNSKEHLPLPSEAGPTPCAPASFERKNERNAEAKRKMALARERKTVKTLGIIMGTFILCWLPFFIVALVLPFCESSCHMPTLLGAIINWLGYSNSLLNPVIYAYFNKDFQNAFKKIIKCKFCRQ

[12] = target: 5-hydroxytryptamine receptor 7 (Homo sapiens, UniProt P34969); test: Binding affinity against human cloned 5-hydroxytryptamine 7 receptor stably expressed in CHO cells using [3H]LSD; type: cell-based
[13] = target: T5, 5-hydroxytryptamine receptor 2A; test: Inhibition of [125I]DOI binding to human cloned 5-hydroxytryptamine 2A receptor stably expressed in CHO cells at 1 uM; type: cell-based
[14] = target: T9, 5-hydroxytryptamine receptor 2C (Homo sapiens) (UniProt P28335); test: Inhibition of [3H]5-HT binding to human cloned 5-hydroxytryptamine 2C receptor stably expressed in CHO cells at 1 uM; type: cell-based
T9 sequence (whole entry): T6 sequence (P28335 whole entry)

D(2) dopamine receptor [15] = target: T7, D(2) dopamine receptor; test: Inhibition of [3H]spiperone binding to human cloned Dopamine receptor D2 stably expressed in CHO-K1 cells at 1 uM; type: cell-based
D(3) dopamine receptor [16] = target: T2, D(3) dopamine receptor; test: Inhibition of [3H]spiperone binding to human cloned Dopamine receptor D3 stably expressed in CHO-K1 cells at 1 uM; type: cell-based
[17] = target: T10, D(4) dopamine receptor (Homo sapiens) (UniProt P21917); test: Inhibition of [3H]spiperone binding to human cloned Dopamine receptor D4 stably expressed in CHO-K1 cells at 1 uM; type: cell-based
T10 sequence (whole entry): T3 sequence (P21917 whole entry)

T2 sequence (P35462 whole entry): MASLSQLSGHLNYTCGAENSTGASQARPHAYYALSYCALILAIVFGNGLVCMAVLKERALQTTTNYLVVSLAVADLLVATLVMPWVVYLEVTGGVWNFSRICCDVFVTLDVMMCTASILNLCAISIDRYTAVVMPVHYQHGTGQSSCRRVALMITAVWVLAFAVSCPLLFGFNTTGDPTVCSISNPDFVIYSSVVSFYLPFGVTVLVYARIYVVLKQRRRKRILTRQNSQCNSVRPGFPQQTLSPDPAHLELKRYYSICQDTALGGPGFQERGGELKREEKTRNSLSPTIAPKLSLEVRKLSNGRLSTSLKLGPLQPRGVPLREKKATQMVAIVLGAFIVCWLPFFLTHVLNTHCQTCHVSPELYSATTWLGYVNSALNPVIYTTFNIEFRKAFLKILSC
T5 sequence (P28223 whole entry): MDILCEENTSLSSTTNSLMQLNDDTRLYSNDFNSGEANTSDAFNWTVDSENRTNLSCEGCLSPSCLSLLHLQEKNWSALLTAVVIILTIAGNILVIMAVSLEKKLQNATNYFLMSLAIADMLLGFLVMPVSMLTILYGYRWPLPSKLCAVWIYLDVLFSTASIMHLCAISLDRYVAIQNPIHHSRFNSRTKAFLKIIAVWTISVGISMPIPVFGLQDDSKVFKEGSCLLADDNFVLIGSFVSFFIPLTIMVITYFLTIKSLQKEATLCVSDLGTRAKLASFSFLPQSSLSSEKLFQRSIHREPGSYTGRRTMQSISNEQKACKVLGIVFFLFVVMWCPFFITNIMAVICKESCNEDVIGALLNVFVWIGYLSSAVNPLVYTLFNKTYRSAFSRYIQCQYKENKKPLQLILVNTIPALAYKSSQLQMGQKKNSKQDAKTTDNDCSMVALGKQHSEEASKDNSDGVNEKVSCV
Chain of 5-hydroxytryptamine receptor 1B (Homo sapiens) (P28222 whole entry): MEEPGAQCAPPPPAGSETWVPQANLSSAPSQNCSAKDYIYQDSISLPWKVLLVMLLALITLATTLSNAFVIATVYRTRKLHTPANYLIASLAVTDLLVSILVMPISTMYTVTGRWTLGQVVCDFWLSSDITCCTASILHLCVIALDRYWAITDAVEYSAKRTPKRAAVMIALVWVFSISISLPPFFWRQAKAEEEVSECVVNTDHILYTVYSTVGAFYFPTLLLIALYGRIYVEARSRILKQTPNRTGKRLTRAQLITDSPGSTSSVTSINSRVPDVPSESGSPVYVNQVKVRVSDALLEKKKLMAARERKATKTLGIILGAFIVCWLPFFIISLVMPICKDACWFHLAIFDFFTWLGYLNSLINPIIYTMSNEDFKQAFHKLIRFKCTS
Chain of 5-hydroxytryptamine receptor 1D (Homo sapiens) (P28221 whole entry): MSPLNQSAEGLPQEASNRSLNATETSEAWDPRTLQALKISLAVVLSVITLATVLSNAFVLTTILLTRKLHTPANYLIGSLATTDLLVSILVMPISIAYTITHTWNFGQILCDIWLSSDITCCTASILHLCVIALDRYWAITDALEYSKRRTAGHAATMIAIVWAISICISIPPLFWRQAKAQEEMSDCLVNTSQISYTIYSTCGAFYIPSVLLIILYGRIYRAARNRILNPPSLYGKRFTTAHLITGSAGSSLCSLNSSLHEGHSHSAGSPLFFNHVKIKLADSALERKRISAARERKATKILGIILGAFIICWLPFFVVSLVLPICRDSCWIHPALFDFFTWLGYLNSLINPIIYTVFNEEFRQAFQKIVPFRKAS
Chain of 5-hydroxytryptamine receptor 7 (P34969 whole entry): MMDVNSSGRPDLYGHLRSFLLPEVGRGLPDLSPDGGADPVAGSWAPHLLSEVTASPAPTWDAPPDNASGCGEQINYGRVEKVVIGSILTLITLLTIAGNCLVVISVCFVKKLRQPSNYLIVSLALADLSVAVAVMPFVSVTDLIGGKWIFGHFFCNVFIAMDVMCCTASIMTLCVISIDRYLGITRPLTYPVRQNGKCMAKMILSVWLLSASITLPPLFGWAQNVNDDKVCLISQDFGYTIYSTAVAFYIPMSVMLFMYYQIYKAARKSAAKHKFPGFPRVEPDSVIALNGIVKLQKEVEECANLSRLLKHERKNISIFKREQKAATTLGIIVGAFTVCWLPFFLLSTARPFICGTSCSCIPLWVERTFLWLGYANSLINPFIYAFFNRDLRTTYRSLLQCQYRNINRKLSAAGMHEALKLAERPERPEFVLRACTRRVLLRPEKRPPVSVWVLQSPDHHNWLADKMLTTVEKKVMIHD
T7 sequence (P14416 whole entry): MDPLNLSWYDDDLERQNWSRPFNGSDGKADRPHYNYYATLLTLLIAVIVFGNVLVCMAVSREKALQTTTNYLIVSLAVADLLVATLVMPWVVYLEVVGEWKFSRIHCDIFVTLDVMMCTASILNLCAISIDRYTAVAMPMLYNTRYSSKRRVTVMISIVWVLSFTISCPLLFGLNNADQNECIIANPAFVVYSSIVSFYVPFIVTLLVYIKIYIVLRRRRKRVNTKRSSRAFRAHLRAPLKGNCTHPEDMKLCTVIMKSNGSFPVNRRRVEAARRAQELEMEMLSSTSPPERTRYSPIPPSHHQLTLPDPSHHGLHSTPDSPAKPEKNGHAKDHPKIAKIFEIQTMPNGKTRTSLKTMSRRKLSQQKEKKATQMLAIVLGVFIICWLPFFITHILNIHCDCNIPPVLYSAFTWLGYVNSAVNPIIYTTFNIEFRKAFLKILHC
T1 sequence (P50406 whole entry): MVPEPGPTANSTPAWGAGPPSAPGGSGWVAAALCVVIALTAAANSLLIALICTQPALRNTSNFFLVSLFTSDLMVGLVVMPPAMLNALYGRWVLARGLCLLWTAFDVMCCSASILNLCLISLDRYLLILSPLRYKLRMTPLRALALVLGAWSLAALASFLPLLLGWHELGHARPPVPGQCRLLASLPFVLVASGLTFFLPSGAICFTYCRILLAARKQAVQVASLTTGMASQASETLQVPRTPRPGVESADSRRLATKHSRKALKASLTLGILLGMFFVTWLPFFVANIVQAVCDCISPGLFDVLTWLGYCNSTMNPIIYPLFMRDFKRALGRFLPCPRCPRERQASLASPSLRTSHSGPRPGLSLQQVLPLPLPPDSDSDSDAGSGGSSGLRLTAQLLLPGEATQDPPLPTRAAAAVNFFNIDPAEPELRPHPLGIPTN

| Compound | pKi [2] | pIC50 [3] | also measured |
| --- | --- | --- | --- |
| CC(=O)N1CC=C(c2cn(S(=O)(=O)c3ccccc3)c3ccccc23)CC1 | – | – | inhibition [1]: 64% |
| Nc1ccc(S(=O)(=O)n2cc(C3=CCNCC3)c3cc(F)ccc32)cc1 | 9.00 | 8.01 | – |
| O=S(=O)(c1ccccc1Cl)n1cc(C2=CCNCC2)c2ccccc21 | 9.40 | 8.06 | pKi (D(3) dopamine receptor [4]): 6.20; pKi (D(4) dopamine receptor): < 5.30; inhibition [5]: 12%; inhibition [6]: 6%; inhibition [7]: 2%; pKi [8]: 6.22; pKi [9]: 6.42; pKi (D(2) dopamine receptor [10]): < 5.70; pKi [11]: < 5.70 |
| CN1CC=C(c2cn(S(=O)(=O)c3cccc(Cl)c3)c3ccccc23)CC1 | 9.00 | 8.03 | – |
| O=S(=O)(c1ccc2ccccc2c1)n1cc(C2=CCNCC2)c2ccccc21 | 7.57 | – | – |
| CN1CC=C(c2cn(C(=O)Nc3ccccc3)c3ccccc23)CC1 | 6.93 | – | – |
| Nc1ccc(S(=O)(=O)n2cc(C3=CCNCC3)c3cc(OCc4ccccc4)ccc32)cc1 | 7.30 | – | – |
| COc1ccc2c(c1)c(C1=CCNCC1)cn2S(=O)(=O)c1ccc2ccccc2c1 | 7.72 | 8.39 | – |
| O=S(=O)(c1ccccc1)n1cc(C2=CCNCC2)c2cc(F)ccc21 | 8.62 | – | – |
| Nc1ccc(S(=O)(=O)n2cc(C3CCNCC3)c3ccc(Cl)cc32)cc1 | 8.52 | 8.07 | pKi [12]: < 5.70; inhibition [13]: 65%; inhibition [5]: 30%; inhibition [6]: 10%; inhibition [7]: 16%; inhibition [14]: 15%; inhibition (D(2) dopamine receptor [15]): 10%; inhibition (D(3) dopamine receptor [16]): 7%; inhibition [17]: 7%; pKi [11]: 6.94 |
| COc1ccc(S(=O)(=O)n2cc(C3=CCNCC3)c3ccccc32)cc1 | 7.74 | – | – |
| CN1CC=C(c2cn(S(=O)(=O)c3ccc(F)cc3)c3ccccc23)CC1 | 8.30 | 7.37 | – |
| Nc1ccc(S(=O)(=O)n2cc(C3=CCNCC3)c3cc(Br)ccc32)cc1 | 8.15 | 7.47 | – |
| O=S(=O)(c1ccccc1)n1cc(C2=CCNCC2)c2ccccc21 | 8.70 | 7.37 | – |
| O=S(=O)(c1nccc2sncc12)n1cc(C2=CCNCC2)c2ccccc21 | 8.30 | 6.77 | – |
| CN1CC=C(c2cn(S(=O)(=O)c3ccccc3Cl)c3ccccc23)CC1 | 8.00 | 9.15 | – |
| O=S(=O)(c1ccccc1)n1cc(C2=CCN(Cc3ccccc3)CC2)c2ccccc21 | 6.61 | – | – |
| CCCCS(=O)(=O)n1cc(C2=CCNCC2)c2ccccc21 | 7.11 | – | – |
| O=S(=O)(c1ccccc1F)n1cc(C2=CCNCC2)c2ccccc21 | 9.00 | 8.57 | pKi (D(3) dopamine receptor [4]): 6.13; pKi (D(4) dopamine receptor): < 5.30; inhibition [13]: 50%; inhibition [5]: 11%; inhibition [6]: 9%; inhibition [7]: 53%; inhibition [14]: 57%; pKi (D(2) dopamine receptor [10]): < 5.70; pKi [11]: 6.06 |

| Compound | pKi [2] | pIC50 [3] | also measured |
| --- | --- | --- | --- |
| O=S(=O)(c1ccc(C(F)(F)F)cc1)n1cc(C2=CCNCC2)c2ccccc21 | 7.70 | – | – |
| CN1CC=C(c2c[nH]c3ccccc23)CC1 | 7.01 | – | – |
| Nc1ccc(S(=O)(=O)n2cc(C3=CCNCC3)c3cc([N+](=O)[O-])ccc32)cc1 | 7.54 | – | – |
| CC(C)(C)OC(=O)N1CC=C(c2cn(S(=O)(=O)c3ccccc3)c3ccccc23)CC1 | 7.27 | – | – |
| O=S(=O)(c1ccc(Cl)cc1)n1cc(C2=CCNCC2)c2cc(F)ccc21 | 7.85 | – | – |
| CN1CC=C(c2cn(C(=O)c3ccccc3)c3ccccc23)CC1 | 7.00 | – | – |
| CN1CC=C(c2cn(S(=O)(=O)c3ccccc3)c3ccccc23)CC1 | 8.70 | 7.86 | – |
| O=S(=O)(c1ccccc1)n1cc(C2CCNCC2)c2ccccc21 | 7.92 | 7.71 | – |
| O=S(=O)(c1ccc(Cl)s1)n1cc(C2=CCNCC2)c2ccccc21 | 8.52 | 7.85 | – |
| COc1ccc2c(c1)c(C1=CCNCC1)cn2S(=O)(=O)c1ccc(N)cc1 | 8.52 | 9.40 | pKi [12]: < 5.30; inhibition [5]: 27%; inhibition [6]: 32%; pKi [11]: 7.01 |
| CN1CC=C(c2cn(S(=O)(=O)c3ccccc3F)c3ccccc23)CC1 | 8.00 | 8.41 | – |
| O=S(=O)(c1ccc(F)cc1)n1cc(C2=CCNCC2)c2cc(F)ccc21 | 8.52 | 7.51 | – |
| Nc1ccc(S(=O)(=O)n2cc(C3CCNCC3)c3cc(F)ccc32)cc1 | 8.70 | 8.89 | – |
| Nc1ccc(S(=O)(=O)n2cc(C3=CCNCC3)c3ccc(Cl)cc32)cc1 | 8.52 | 7.95 | – |
| Nc1ccc(S(=O)(=O)n2cc(C3=CCNCC3)c3ccccc32)cc1 | 8.70 | 9.10 | pKi [12]: 5.81; inhibition [5]: 33%; pKi [11]: 5.78 |
| O=S(=O)(c1ccccc1)n1cc(C2CCNCC2)c2cc(F)ccc21 | 7.70 | – | – |
| Nc1ccc(S(=O)(=O)n2cc(C3=CCNCC3)c3ccc([N+](=O)[O-])cc32)cc1 | 7.51 | – | – |
| Nc1ccc(S(=O)(=O)n2cc(C3=CCNCC3)c3cc4c(cc32)OCO4)cc1 | 9.00 | 8.77 | – |
| O=S(=O)(c1cccc2ccccc12)n1cc(C2=CCNCC2)c2cc(F)ccc21 | 8.40 | 8.05 | – |
